From the NIST ThermoML archive (doi:10.1016/j.jct.2006.01.007)

Assay: xn = mol fraction of the nth substance listed
Details: 101 kPa, Liquid; for speed of sound: Sing-around technique in a fixed-path interferometer

CC(C)(C)O [2-methylpropan-2-ol] + O
x2 = 0.9615
Details	mass density [kg/m3]	speed of sound [m/s]
288.15 K	980.2	1613.7
293.15 K	978.4	1612.4
298.15 K	976.6	1610
303.15 K	973.6	1606.5
308.15 K	971.5	1602.5
313.15 K	968.8	1597

C[S+](C)[O-] [dimethyl sulfoxide] + O
x1 = 0.0385
Details	mass density [kg/m3]	speed of sound [m/s]
288.15 K	1019.8	1555.2
293.15 K	1018.1	1562.5
298.15 K	1016.2	1568.5
303.15 K	1014.4	1573.4
308.15 K	1012.3	1577
313.15 K	1010.2	1579.4
